# Measurements published in US11547644B2, “Emulsions comprising cationic emulsifiers based on MDIPA ester quats” (Evonik Operations GmbH, priority 2015, dated 2023).
# How the values were obtained:
# [1] = test system: invertebrate aquatic animals; assay: Acute Immobilization Test (OECD 202); format: in vivo
# Source text: (§1) Consequently, an emulsifier according to the invention (Example 2) was investigated compared to distearyldimonium chloride with the help of various OECD tests.
# Daphnia Magna = Daphnia Magna Reproduction Test (OECD 211); conditions: in vivo
# Source text: as §1
# [2] = Biodegradability in water, OECD 301
# Source text: as §1
smiles,measurement,setting,value
CCCCCCCCCCCCCCCCCC[N+](C)(C)CCCCCCCCCCCCCCCCCC.[Cl-] [Distearyldimonium Chloride],"Short-term toxicity towards invertebrate aquatic animals, EC50(48h)",[1],EC-50(48h) = 0.16 mg/l
same,"Long-term toxicity towards invertebrate aquatic animals, NOEC(21 d)",Daphnia Magna,NOEC(21 d) = 0.38 mg/l
same,Biodegradability in water,[2],OECD 301: 3% (28 d)
